For the assay, the target named is recombinant full length HPK-1 enzyme (Homo sapiens (Human), UniProt Q92918). Description: HPK-1 biochemical enzyme assay (ADP-Glo kinase inhibition). As to conditions: recombinant full length HPK-1 6.8 nM, 10 μM ATP, 12.5 μM MBP, 30 mins at 25° C. In short, it runs like this: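 Recombinant full-length human HPK-1 (6.8 nM) incubated 30 min at 25° C. with 10 μM ATP and 12.5 μM swine MBP in 40 mM Tris pH 7.4, 20 mM MgCl2, 50 μM DTT, 0.1 mg/mL BSA. ADP measured by ADP-Glo; IC50 from 10 concentrations, normalized to no-enzyme and vehicle controls.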
A general note: ADP-Glo first removes unused ATP, then detects ADP through luciferase.

Sequence of recombinant full length HPK-1 enzyme (Q92918 whole entry, species assumed): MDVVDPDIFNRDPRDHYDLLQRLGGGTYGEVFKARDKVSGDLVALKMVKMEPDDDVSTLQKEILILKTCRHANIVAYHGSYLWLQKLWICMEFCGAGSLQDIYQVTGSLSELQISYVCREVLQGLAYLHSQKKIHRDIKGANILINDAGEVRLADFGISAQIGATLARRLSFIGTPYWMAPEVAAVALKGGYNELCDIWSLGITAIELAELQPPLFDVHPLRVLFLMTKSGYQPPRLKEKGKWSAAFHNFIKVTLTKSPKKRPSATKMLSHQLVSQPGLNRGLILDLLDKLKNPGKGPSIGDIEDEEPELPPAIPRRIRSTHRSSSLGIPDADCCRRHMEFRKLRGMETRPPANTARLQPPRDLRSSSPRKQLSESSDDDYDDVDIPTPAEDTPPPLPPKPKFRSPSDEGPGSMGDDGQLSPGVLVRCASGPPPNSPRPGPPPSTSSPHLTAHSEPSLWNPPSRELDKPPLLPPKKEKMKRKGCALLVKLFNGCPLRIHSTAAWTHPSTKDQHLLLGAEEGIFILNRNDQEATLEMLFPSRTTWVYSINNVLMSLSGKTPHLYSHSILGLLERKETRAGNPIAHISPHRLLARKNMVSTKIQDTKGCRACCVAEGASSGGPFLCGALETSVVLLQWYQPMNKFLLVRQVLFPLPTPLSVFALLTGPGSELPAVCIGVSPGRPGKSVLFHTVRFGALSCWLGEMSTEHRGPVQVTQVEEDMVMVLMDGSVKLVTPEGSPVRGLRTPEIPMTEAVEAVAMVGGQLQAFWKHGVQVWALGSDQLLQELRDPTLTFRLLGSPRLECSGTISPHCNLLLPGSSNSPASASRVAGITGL

On to `Cc1c(Nc2cc[nH]c(=O)c2C(=O)Nc2ccc(N3CCC(C4CC4)CC3)cc2)cnc2c1NCCO2` [Example 411, N-(4-(4-cyclopropylpiperidin-1-yl)phenyl)-4-((8-methyl-2,3-dihydro-1H-pyrido[2,3-b][1,4]oxazin-7-yl)amino)-2-oxo-1,2-dihydropyridine-3-carboxamide], for which the IC50 lay in the range of 10 to 100 nM.

In the case of `Cc1c(Nc2nc[nH]c(=O)c2C(=O)Nc2ccc(N3CCN(C(C)C)CC3)cc2)cnc2c1NCCO2` [Example 412, N-(4-(4-isopropylpiperazin-1-yl)phenyl)-4-((8-methyl-2,3-dihydro-1H-pyrido[2,3-b][1,4]oxazin-7-yl)amino)-6-oxo-1,6-dihydropyrimidine-5-carboxamide], the IC50 was in the range of 10 to 100 nM.

On to `COCCN1CCN(c2ccc(NC(=O)c3c(Nc4cnc5c(c4C)NCCO5)nc[nH]c3=O)cc2)CC1` [Example 413, N-(4-(4-(2-methoxyethyl)-piperazin-1-yl)phenyl)-4-((8-methyl-2,3-dihydro-1H-pyrido[2,3-b][1,4]oxazin-7-yl)amino)-6-oxo-1,6-dihydropyrimidine-5-carboxamide], for which the IC50 is 10 to 100 nM.

Usually IC50 stands for the concentration needed to halve the response being measured.

The record behind these values is US20250282794A1 (CURADEV PHARMA LTD, priority 2022, published 2025).
